Laboratory results taken from patent US7186755B2 (Helsinn Health Care S.A., priority 1997, dated 2007).
Like-named read-outs stand apart in the source and are kept apart here.

Legend:
[1] = human volunteers, 14C nimesulide
[2] = rats, 14C nimesulide

- Systemic concentrations of nimesulide after dermal application [1]: no significant systemic concentrations
- Systemic concentrations of nimesulide after dermal application [2]: no significant systemic concentrations
SMILES: CS(=O)(=O)Nc1ccc([N+](=O)[O-])cc1Oc1ccccc1 [Nimesulide]
